Source: patent US5098900A, “3(2H)pyridazinone, process for its preparation and anti-allergic agent containing it” (Nissan Chemical Industries Ltd., priority 1984, dated 1992)
Where two headings read alike, the source gives them in different places.

Tests used:
SRS-A = SRS-A antagonism in guinea-pig ileum (SRS-A-induced contraction); assay type: cell-based; details: 1 min, test compound 5×10^-7 g/ml, isolated guinea-pig ileum; for inhibition at 0.5 µg/mL: Cavia porcellus
Protocol: (i) SRS-A antagonism in quinea-pig ileum
SRS-A antagonism was determined against the contraction induced by SRS-A in isolated guinea-pig ileum. The SRS-A was prepared in accordance with the method of Brocklehurst (J. Physiol., 151, 416, 1960) and Kohno and Parker (J. Immunol., 125, 446, 1980). Adult male guinea-pigs (200-250 g) were sensitized with chick egg albumin (EA), 100 mg subcutaneously and 100 mg intraperitoneally. Three weeks later the animals were killed by a blow on the head and lungs were perfused free of blood with Tyrode solution passed through the right ventricle. Isolated lungs were chopped into pieces (1 mm^3) by a scissors in Tyrode solution and filtrated with gauze, and then 1.0-1.3 g of chopped lung fragments were distributed into individual tubes (9.7 ml of Tyrode solution/tube). EA solution (0.3 ml) at a 3×10^-4 g/ml final concentration was added to the tubes and incubated for 20 min at 37° C., and then the supernatant was used for the SRS-A antagonism.
Assay for SRS-A antagonism was performed as follows: Ileum preparations isolated from male guinea-pig (300-400 g) were suspended under 0.5 g tension in organ baths (5 ml) containing Tyrode solution maintained at 30° C. and gassed with 95% O2 +5% CO2. After the repeated responses to histamine (10^-7 g/ml) was established, the contractile response to SRS-A (0.5 ml) was carried out in the presence of 10^-6 M atropine and 10^-6 M pyrilamine. Test compounds dissolved in 100% dimethyl sulfoxide were added to the organ baths (final concentration of 5×10^-7 g/ml) 1 min prior to the SRS-A addition, and SRS-A-induced contractions were compared with those of control (SRS-A-induced contraction before the treatment). The SRS-A antagonism (%) =[1.0 - (SRS-A-induced contraction in test compound)/control]×100

LTD4 [1] = test: Effect on bronchoconstriction induced by intravenous administration of LTD4; assay type: in vivo, guinea-pig; details: 2 mg/kg, i.v., in Tween 80; LTD4 2 μg/kg i.v.
Protocol: (iv) Effect on bronchoconstriction induced by intravenous (i.v.) administration of LTD4
Bronchoconstrictions induced by i.v. administration of LTD4 in guinea-pigs (350-450 g) were measured as described in anaphylactic bronchoconstriction. Guinea-pigs were anaesthetized with urethane (1.5 g/kg) and the trachea was cannulated to record total pulmonary resistance. The right jugular vein was cannulated for the administration of the all agents. The guinea-pigs were artificially ventilated by a small respirator set at a stroke volume of 5 ml and a rate of 50 breaths per min. LTD4 (2 μg/kg)-induced bronchoconstriction was shown by the increase in air overflow volume. After the response to histamine (5 μg/kg) was checked, the first response to LTD4 was obtain-d as control. […] Inhibition (%) of the bronchoconstriction was determined as follows: Inhibition (%) =(1.0 -peak value in the second response/peak value in the first response)×100.

LTC4 = LTC4 antagonism in isolated guinea-pig trachea (LTC4-induced contraction); assay type: cell-based; details: Cavia porcellus, 5 min, read-out: LTC4 antagonism
Protocol: (ii) LTC4 and LTD4 antagonisms in guinea-pig trachea
Antagonism for LTC4 and LTD4 were determined in isolated guinea-pig trachea prepared as spiral strip. 10 Tracheal preparations were suspended under 1 g tension in […] and they were incubated for 1 hr prior to use. Contractile responses to LTC4 (2×10^-8 g/ml) and LTD4 (2×10^-8 g/ml) were obtained after the maximal response to histamine (10^-4 M). Test compounds dissolved in 100% dimethyl sulfoxide were added to the organ baths (final concentration of 10^-5 g/ml) 5 min prior to LTC4 and LTD4 addition, and then contractile responses to LTC4 and LTD4 were compared with those of control which was obtained from a paired trachea in the absence of test compounds. LTC4 - and LTD4 -induced contractions were expressed as a percentage of the maximal response to histamine. The antagonism was determined as follows: Antagonism (%)=(1.0-% contraction in test/% contraction in control)×100

LTD4 [2] = test: LTD4 antagonism in isolated guinea-pig trachea (LTD4-induced contraction); assay type: cell-based; details: Cavia porcellus, 5 min, test compound 10^-5 g/ml, LTD4 2×10^-8 g/ml
In short: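 Spiral strips of isolated guinea-pig trachea were held at 1 g tension in organ baths and incubated for 1 hr. After a maximal histamine (10^-4 M) response, test compounds in 100% dimethyl sulfoxide were added 5 min before LTD4 (2×10^-8 g/ml). Contraction, as percent of histamine maximum, was compared with a paired untreated control trachea to give antagonism (%).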

[3] = system: antigen-induced anaphylactic bronchoconstriction; test: Effect on anaphylactic bronchoconstriction in passively sensitized guinea-pig; assay type: in vivo; details: 2 mg/kg, i.v.
Protocol: (iii) Effect on anaphylactic bronchoconstriction in passively sensitized guinea-pig
Male guinea-pigs (350-450 g) were passively sensitized with intravenous (i.v.) injection of 0.125 ml rabbit anti-EA serum (Cappel Laboratories) 1 day preceding the experiment. […] The right jugular vein was cannulated for the administration of the all agents and trachea was cannulated to record total pulmonary resistance. Guinea-pigs were artificially ventilated by a small animal respirator (Shinano, Model SN-480-7) set at a stroke volume of 4-5 ml and a rate of 50 breaths per min. […] The increase in air overflow volume was expressed as a percentage of the maximum bronchoconstriction obtained by clamping off the trachea. Following surgical preparation, the animals were pretreated with indomethacin (1.0 mg/kg, 10 min), pyrilamine (2 mg/kg, 6 min) and propranolol (0.1 mg/kg, 5 min) prior to the EA challenge (0.1 or 10 mg/kg). All test compounds, 2 mg/kg in 3% Tween 80 or 3% PEG-400, were administered 1 min before the EA challenge. Inhibition (%) of bronchoconstriction was determined as follows Inhibition (%)=(1.0% -maximum bronchoconstriction in test/% maximum bronchoconstriction in control) ×100.
In the Table, the dose of EA was 10 mg/kg, and each compound was dissolved or suspended in 3% Tween 80.
In the Table, the dose of EA was 0.1 mg/kg.
*: PEG represents polyethylene glycol400.

ddY strain male mice = test: Acute toxicity test, method-(1), oral administration; assay type: in vivo; details: 300 mg/kg, P.O., 7 days after administration
Protocol: The lethal ratio was determined in ddY strain male mice (4 weeks old) at 7 days after the oral administration of test compounds.

[4] = test compound 10^-5 g/ml, LTC4 2×10^-8 g/ml, guinea-pig trachea

| Structure (SMILES) | inhibition at 0.5 µg/mL (SRS-A) | Inhibition of LTD4-induced bronchoconstriction (LTD4 [1]) | inhibition at 10 µg/mL (LTC4; [4]) | inhibition at 10 µg/mL (LTD4 [2]) | Inhibition of anaphylactic bronchoconstriction ([3]; EA 10 mg/kg, 3% Tween 80) | Lethal ratio (ddY strain male mice) | SRS-A antagonism (SRS-A) | inhibition at 10 µg/mL (LTC4) | Inhibition of anaphylactic bronchoconstriction ([3]; EA 0.1 mg/kg, Tween 80) |
| --- | --- | --- | --- | --- | --- | --- | --- | --- | --- |
| CC(C)(C)n1ncc(NCc2ccccc2)c(Cl)c1=O [Compound No. 1] | 14% | 23% |  |  |  |  |  |  |  |
| Cc1ccc(CNc2cnn(C(C)(C)C)c(=O)c2Cl)cc1 [Compound No. 3] | 64% | 60.6% | 42% | 50% |  |  |  |  |  |
| COc1ccc(CNc2cnn(C(C)(C)C)c(=O)c2Cl)cc1 [Compound No. 9] | 72% | 38% |  |  | 35% |  |  |  |  |
| CCc1ccc(CNc2cnn(C(C)(C)C)c(=O)c2Cl)cc1 [Compound No. 4] | 73% |  | 55% |  |  | 0/3 |  |  |  |
| CN(C)c1ccc(CNc2cnn(C(C)(C)C)c(=O)c2Cl)cc1.Cl [Compound No. 44, 4-Chloro-5-(4-dimethylaminobenzylamino)-2-t-butyl-3-(2H)pyridazinone hydrochloride] |  | 72.5% |  |  | 72% |  | 55% |  |  |
| CCCc1c(OCC(O)COc2ccc3c(=O)cc(C(=O)O)oc3c2CCC)ccc(C(C)=O)c1O (stereo not shown) [FPL-55712, reference compound] | 88% | 100% |  | 88% | 27% |  |  | 100% | 60% |
| CCOc1ccc(CNc2cnn(C(C)(C)C)c(=O)c2Cl)cc1 [Compound No. 10] | 40% |  | 50% |  | 31% | 0/3 |  |  |  |
